We go through 18 compounds from patent EP4692061A1, “LOW-MOLECULAR-WEIGHT COMPOUND HAVING CEREBLON-BINDING ACTIVITY, AND USE THEREOF” (Aevis Bio, Inc., priority 2023, dated 2024).

One data set deals with cereblon (CRBN) (Homo sapiens, UniProt Q96SW2). Description: In vitro CRBN binding assay (AlphaScreen, competitive inhibition of the PROTAC assay). The settings on record: Table 1; AlphaScreen, PROTAC Optimization Kit for BET Bromodomain-Cereblon Binding; read-out: Alpha IC50.
Another data set relates to MM.1S. Description: Tumor cell viability, CCK-8 assay, MM.1S. In kind it is cell-based. The settings on record: MM.1S (human multiple myeloma); compound treatment 1uM; 5 days. The protocol:
(§1) To examine whether the compounds having CRBN-binding activity according to the present invention exert tumor cell apoptosis effects, the assay was conducted using various human cancer cell lines, including human multiple myeloma cell lines (MM.1S and MM.1R-LR), a human breast cancer cell line (MDA-MB-231), a human lung cancer cell line (A549), a human rhabdomyosarcoma cell line (RD), and a human lymphoma cell line (Jeko-1).
(§2) The MM.1S, MM.1R-LR, MDA-MB-231, A549, RD, and Jeko-1 cell lines were obtained from the American Type Culture Collection (ATCC, Manassas, VA, USA) and cultured in RPMI 1640 medium (Corning, MD, USA) or DMEM (Corning, MD, USA) supplemented with 10% fetal bovine serum (FBS) (Corning, MD, USA), 100 U/mL penicillin (Corning, MD, USA), and 100 µg/mL streptomycin (Corning, MD, USA) at 37°C in a 5% CO2 incubator for 24 hours. The cells were seeded at a density of 1 × 10^4 cells/well in 96-well plates and incubated for 24 hours. After incubation, the test compounds dissolved in dimethyl sulfoxide (DMSO, CAS No.: 67-68-5) were serially diluted to a final concentration of 10 µM and applied to the cells. Following an additional incubation for 2 to 5 days, the analysis was performed using a CCK-8 assay kit (Dojindo, Japan) according to the manufacturer's instructions.
For orientation: Tetrazolium assays rely on reduction of a dye to a coloured formazan, in cell work by metabolically active cells.

In the next data set the test system is MM.1R-LR. Description: Tumor cell viability, CCK-8 assay, MM.1R-LR. The format is cell-based. Conditions: MM.1R-LR (drug-resistant human multiple myeloma); compound treatment 1uM; 5 days. How it is done: as §1, §2
In the next data set the test system is MDA-MB-231. Description: Tumor cell viability, CCK-8 assay, MDA-MB-231. The format is cell-based. Conditions: MDA-MB-231 (human breast cancer); compound treatment 1uM; 2 days. The protocol:
as §1, §2

Another data set concerns A549. Description: Tumor cell viability, CCK-8 assay, A549. The settings on record: A549 (human lung cancer); compound treatment 1uM; 2 days. The format is cell-based. How it is done: as §1, §2
Another data set relates to RD. Description: Tumor cell viability, CCK-8 assay, RD. In kind it is cell-based. The settings on record: RD (human rhabdomyosarcoma); compound treatment 1uM; 3 days. The protocol:
as §1, §2

For a further data set, the system named is Jeko-1. Description: Tumor cell viability, CCK-8 assay, Jeko-1. The format is cell-based. The settings on record: Jeko-1 (human lymphoma); compound treatment 1uM; 3 days. How it is done:
as §1, §2

By IC50 is commonly meant the midpoint of a concentration-inhibition curve. Turning to `O=C1CCC(c2cccc(NS(=O)(=O)c3cccc(NC(=O)c4ccc(Cl)cc4)c3)c2)C(=O)N1` (centres unmarked) [AEV41 001, 4-chloro-N-(3-(N-(3-(2,6-dioxopiperidin-3-yl)phenyl)sulfamoyl)phenyl)benzamide], on cereblon (CRBN), the 50% inhibitory concentration (IC50) worked out at 1230 nM. Also, the “Cell viability (% of control)” value with MM.1S is on record as 88.3 % of control; with MM.1R-LR, 78.4 % of control.
Regarding `CCCCCCCc1ccc(C(=O)Nc2cccc(S(=O)(=O)Nc3cccc(C4CCC(=O)NC4=O)c3)c2)cc1` (centres unmarked) [AEV40204, N-(3-(N-(3-(2,6-dioxopiperidin-3-yl)phenyl)sulfamoyl)phenyl)-4-heptylbenzamide], at cereblon (CRBN), the IC50 was found to be 440 nM. Besides, the “Cell viability (% of control)” value was 3.3 % of control with MM.1S; 49.4 % of control in the data set with MM.1R-LR; 40.4 % of control in the data set on MDA-MB-231; 33.6 % of control with A549; 50.8 % of control in the data set with RD; 11.6 % of control with Jeko-1.
`CC1CCC(C(=O)Nc2cccc(S(=O)(=O)Nc3cccc(C4CCC(=O)NC4=O)c3)c2)CC1` (centres unmarked) [AEV40224]: on cereblon (CRBN), the IC50 turned out to be 2130 nM.
Regarding `O=C1CCC(c2cccc(NS(=O)(=O)c3cccc(NC(=O)C4CCOCC4)c3)c2)C(=O)N1` (centres unmarked) [AEV40225], the IC50 on cereblon (CRBN) was 12100 nM.
The same measure, in the same setting: with `COC(=O)c1cccc(S(=O)(=O)Nc2cccc(C3CCC(=O)NC3=O)c2)c1` (centres unmarked) [AEV40226] the figure was 2220 nM; with `CC1(C(=O)Nc2cccc(S(=O)(=O)Nc3cccc(C4CCC(=O)NC4=O)c3)c2)CC1` (centres unmarked) [AEV40227], 980 nM.
Regarding `CCCCCCCCc1ccc(C(=O)Nc2cccc(S(=O)(=O)Nc3cccc(C4CCC(=O)NC4=O)c3)c2)cc1` (centres unmarked) [AEV40264, N-(3-(N-(3-(2,6-dioxopiperidin-3-yl)phenyl)sulfamoyl)phenyl)-4-octylbenzamide], the IC50 on cereblon (CRBN) is 320 nM. Besides, the “Cell viability (% of control)” value is given as 13.3 % of control in the data set on MM.1S; 79.8 % of control in the data set on MM.1R-LR; 46.3 % of control with MDA-MB-231; 61.8 % of control in the data set on A549; 67.9 % of control with RD; 5.8 % of control in the data set with Jeko-1.
Consider `O=C1CCC(c2cccc(NS(=O)(=O)c3cccc(NC(=O)c4ccc(CCl)cc4)c3)c2)C(=O)N1` (centres unmarked) [AEV41002, 4-(chloromethyl)-N-(3-(N-(3-(2,6-dioxopiperidin-3-yl)phenyl)sulfamoyl)phenyl)benzamide], for which the IC50 on cereblon (CRBN) worked out at 170 nM. Also, the “Cell viability (% of control)” value is 97.8 % of control with MM.1S and 90.2 % of control in the data set with MM.1R-LR.
Turning to `O=C1CCC(c2cccc(NS(=O)(=O)c3cccc(NC(=O)c4ccc(CCCl)cc4)c3)c2)C(=O)N1` (centres unmarked) [AEV41003, 4-(2-chloroethyl)-N-(3-(N-(3-(2,6-dioxopiperidin-3-yl)phenyl)sulfamoyl)phenyl)benzamide], the half-maximal inhibitory concentration (IC50) at cereblon (CRBN) came to 770 nM. For the same compound, the “Cell viability (% of control)” value was 92.1 % of control in the data set on MM.1S, 79.9 % of control in the data set on MM.1R-LR, 97.0 % of control in the data set on MDA-MB-231 and 104.0 % of control in the data set with A549.
With `O=C1CCC(c2cccc(NS(=O)(=O)c3cccc(NC(=O)c4ccc(CCCCl)cc4)c3)c2)C(=O)N1` (centres unmarked) [AEV41004, 4-(3-chloropropyl)-N-(3-(N-(3-(2,6-dioxopiperidin-3-yl)phenyl)sulfamoyl)phenyl)benzamide], the IC50 at cereblon (CRBN) turned out to be 1570 nM. Moreover, the “Cell viability (% of control)” value is 10.5 % of control with MM.1S; 63.8 % of control in the data set on MM.1R-LR; 83.5 % of control in the data set on MDA-MB-231; 101.9 % of control in the data set with A549; 78.6 % of control with RD.
Consider `O=C1CCC(c2cccc(NS(=O)(=O)c3cccc(NC(=O)c4ccc(CCCCCl)cc4)c3)c2)C(=O)N1` (centres unmarked) [AEV41005, 4-(4-chlorobutyl)-N-(3-(N-(3-(2,6-dioxopiperidin-3-yl)phenyl)sulfamoyl)phenyl)benzamide], for which, on cereblon (CRBN), the IC50 was found to be 1200 nM. In addition, the “Cell viability (% of control)” value is given as 10.7 % of control in the data set on MM.1S; 58.2 % of control in the data set on MM.1R-LR; 42.2 % of control in the data set on MDA-MB-231; 36.8 % of control in the data set with A549; 28.7 % of control in the data set on RD; 4.1 % of control in the data set on Jeko-1.
Consider `Cc1ccc(C(=O)Nc2cccc(S(=O)(=O)Nc3cccc(C4CCC(=O)NC4=O)c3)c2)cc1` (centres unmarked) [AEV41009, N-(3-(N-(3-(2,6-dioxopiperidin-3-yl)phenyl)sulfamoyl)phenyl)-4-methylbenzamide], for which, at cereblon (CRBN), the IC50 is 540 nM. Besides, the “Cell viability (% of control)” value with MM.1S is listed as 92.9 % of control; with MM.1R-LR, 81.3 % of control.
In the case of `CCc1ccc(C(=O)Nc2cccc(S(=O)(=O)Nc3cccc(C4CCC(=O)NC4=O)c3)c2)cc1` (centres unmarked) [AEV41010, N-(3-(N-(3-(2,6-dioxopiperidin-3-yl)phenyl)sulfamoyl)phenyl)-4-ethylbenzamide], the IC50 on cereblon (CRBN) came to 420 nM. Also, the “Cell viability (% of control)” value is 88.4 % of control with MM.1S, 66.1 % of control with MM.1R-LR, 95.7 % of control in the data set with MDA-MB-231 and 96.7 % of control in the data set with A549.
`CCCc1ccc(C(=O)Nc2cccc(S(=O)(=O)Nc3cccc(C4CCC(=O)NC4=O)c3)c2)cc1` (centres unmarked) [AEV41011, N-(3-(N-(3-(2,6-dioxopiperidin-3-yl)phenyl)sulfamoyl)phenyl)-4-propylbenzamide]: on cereblon (CRBN), the IC50 was 700 nM. Moreover, the “Cell viability (% of control)” value is on record as 56.9 % of control with MM.1S, 66.1 % of control with MM.1R-LR, 96.7 % of control with MDA-MB-231 and 98.9 % of control in the data set with A549.
As for `CCCCc1ccc(C(=O)Nc2cccc(S(=O)(=O)Nc3cccc(C4CCC(=O)NC4=O)c3)c2)cc1` (centres unmarked) [AEV41012, 4-butyl-N-(3-(N-(3-(2,6-dioxopiperidin-3-yl)phenyl)sulfamoyl)phenyl)benzamide], on cereblon (CRBN), the IC50 amounted to 940 nM. Besides, the “Cell viability (% of control)” value in the data set on MM.1S is reported as 7.4 % of control; in the data set with MM.1R-LR, 56.7 % of control; with MDA-MB-231, 78.7 % of control; in the data set with A549, 94.0 % of control; in the data set on RD, 79.7 % of control; with Jeko-1, 37.7 % of control.
Turning to `CCCCCc1ccc(C(=O)Nc2cccc(S(=O)(=O)Nc3cccc(C4CCC(=O)NC4=O)c3)c2)cc1` (centres unmarked) [AEV41013, N-(3-(N-(3-(2,6-dioxopiperidin-3-yl)phenyl)sulfamoyl)phenyl)-4-pentylbenzamide], at cereblon (CRBN), the IC50 amounted to 360 nM. The “Cell viability (% of control)” value is 15.3 % of control in the data set on MM.1S; 55.2 % of control with MM.1R-LR; 38.5 % of control in the data set on MDA-MB-231; 25.8 % of control in the data set on A549; 30.0 % of control with RD; 11.8 % of control in the data set with Jeko-1.
Consider `O=C1CCC(c2cccc(NS(=O)(=O)c3cccc(NC(=O)c4ccc(CCCCCCl)cc4)c3)c2)C(=O)N1` (centres unmarked) [AEV41047, 4-(5-chloropentyl)-N-(3-(N-(3-(2,6-dioxopiperidin-3-yl)phenyl)sulfamoyl)phenyl)benzamide], for which the concentration for half-maximal inhibition (IC50) at cereblon (CRBN) was 1880 nM. The “Cell viability (% of control)” value with MM.1S is 14.9 % of control; in the data set with MM.1R-LR it was 56.9 % of control; in the data set on MDA-MB-231 it was 28.2 % of control; in the data set on A549, 32.2 % of control; in the data set with RD, 20.5 % of control; in the data set on Jeko-1, 15.7 % of control.
Consider `O=C1CCC(c2cccc(NS(=O)(=O)c3cccc(NC(=O)c4ccc(CCCCCCCl)cc4)c3)c2)C(=O)N1` (centres unmarked) [AEV41048, 4-(6-chlorohexyl)-N-(3-(N-(3-(2,6-dioxopiperidin-3-yl)phenyl)sulfamoyl)phenyl)benzamide], for which the IC50 at cereblon (CRBN) worked out at 2590 nM. In addition, the “Cell viability (% of control)” value in the data set on MM.1S was 10.8 % of control; with MM.1R-LR, 51.5 % of control; in the data set on MDA-MB-231, 45.6 % of control; in the data set on A549, 47.0 % of control; in the data set with RD, 54.0 % of control; in the data set on Jeko-1 it was 13.0 % of control.
